# Tested on: B16 cells gene expression
# Assay: RNA-Seq (DEGs, GSEA, heatmaps) of B16 cells
# Details: B16 cells, KTC 0.2μM
smiles,measurement,setting,value
"COc1cc(N)cc2c1nc(C(F)F)n2-c1nc(N2CCCOCC2)nc(N2CCOCC2)n1 [KTC1101, 2-(difluoromethyl)-4-methoxy-1-(4-morpholino-6-(1,4-oxazepan-4-yl)-1,3,5-triazin-2-yl)-1H-benzo[d]imidazol-6-amine]",NES: Platinum drug resistance,GSEA KEGG mmu01524,-1.706
same,enrichmentScore: Platinum drug resistance,GSEA KEGG mmu01524,-0.4321
same,NES: Ribosome,GSEA KEGG mmu03010,2.0791
same,enrichmentScore: Ribosome,GSEA KEGG mmu03010,0.5599
same,NES: Nucleocytoplasmic transport,GSEA KEGG mmu03013,-1.168
same,enrichmentScore: Nucleocytoplasmic transport,GSEA KEGG mmu03013,-0.2706
same,NES: DNA replication,GSEA KEGG mmu03030,-1.22
same,enrichmentScore: DNA replication,GSEA KEGG mmu03030,-0.374
same,NES: Proteasome,GSEA KEGG mmu03050,-1.869
same,enrichmentScore: Proteasome,GSEA KEGG mmu03050,-0.5072
same,NES: PPAR signaling pathway,GSEA KEGG mmu03320,-1.414
same,enrichmentScore: PPAR signaling pathway,GSEA KEGG mmu03320,-0.3831
same,NES: Homologous recombination,GSEA KEGG mmu03440,-1.259
same,enrichmentScore: Homologous recombination,GSEA KEGG mmu03440,-0.3597
same,NES: MAPK signaling pathway,GSEA KEGG mmu04010,1.18
same,enrichmentScore: MAPK signaling pathway,GSEA KEGG mmu04010,0.3038
same,NES: ErbB signaling pathway,GSEA KEGG mmu04012,1.235
same,enrichmentScore: ErbB signaling pathway,GSEA KEGG mmu04012,0.3633
same,NES: Rap1 signaling pathway,GSEA KEGG mmu04015,1.294
same,enrichmentScore: Rap1 signaling pathway,GSEA KEGG mmu04015,0.3507
same,NES: Calcium signaling pathway,GSEA KEGG mmu04020,1.795
same,enrichmentScore: Calcium signaling pathway,GSEA KEGG mmu04020,0.4973
same,NES: cGMP-PKG signaling pathway,GSEA KEGG mmu04022,1.703
same,enrichmentScore: cGMP-PKG signaling pathway,GSEA KEGG mmu04022,0.4759
same,NES: cAMP signaling pathway,GSEA KEGG mmu04024,1.563
same,enrichmentScore: cAMP signaling pathway,GSEA KEGG mmu04024,0.4327
same,NES: Cytokine-cytokine receptor interaction,GSEA KEGG mmu04060,1.941
same,enrichmentScore: Cytokine-cytokine receptor interaction,GSEA KEGG mmu04060,0.59
same,NES: Viral protein interaction with cytokine and cytokine receptor,GSEA KEGG mmu04061,2.1
same,enrichmentScore: Viral protein interaction with cytokine and cytokine receptor,GSEA KEGG mmu04061,0.7876
same,NES: Chemokine signaling pathway,GSEA KEGG mmu04062,1.837
same,enrichmentScore: Chemokine signaling pathway,GSEA KEGG mmu04062,0.514
same,NES: NF-kappa B signaling pathway,GSEA KEGG mmu04064,1.257
same,enrichmentScore: NF-kappa B signaling pathway,GSEA KEGG mmu04064,0.3844
same,NES: HIF-1 signaling pathway,GSEA KEGG mmu04066,-1.602
same,enrichmentScore: HIF-1 signaling pathway,GSEA KEGG mmu04066,-0.3782
same,NES: Phospholipase D signaling pathway,GSEA KEGG mmu04072,1.435
same,enrichmentScore: Phospholipase D signaling pathway,GSEA KEGG mmu04072,0.4011
same,NES: Neuroactive ligand-receptor interaction,GSEA KEGG mmu04080,1.734
same,enrichmentScore: Neuroactive ligand-receptor interaction,GSEA KEGG mmu04080,0.5578
same,NES: Cell cycle,GSEA KEGG mmu04110,-1.229
same,enrichmentScore: Cell cycle,GSEA KEGG mmu04110,-0.265
same,NES: Oocyte meiosis,GSEA KEGG mmu04114,-1.291
same,enrichmentScore: Oocyte meiosis,GSEA KEGG mmu04114,-0.2991
same,NES: Protein processing in endoplasmic reticulum,GSEA KEGG mmu04141,-1.222
same,enrichmentScore: Protein processing in endoplasmic reticulum,GSEA KEGG mmu04141,-0.2637
same,NES: Lysosome,GSEA KEGG mmu04142,-1.281
same,enrichmentScore: Lysosome,GSEA KEGG mmu04142,-0.2917
same,NES: Phagosome,GSEA KEGG mmu04145,-1.483
same,enrichmentScore: Phagosome,GSEA KEGG mmu04145,-0.3503
same,NES: PI3K-Akt signaling pathway,GSEA KEGG mmu04151,1.456
same,enrichmentScore: PI3K-Akt signaling pathway,GSEA KEGG mmu04151,0.3693
same,NES: Cellular senescence,GSEA KEGG mmu04218,1.209
same,enrichmentScore: Cellular senescence,GSEA KEGG mmu04218,0.3231
same,NES: Cardiac muscle contraction,GSEA KEGG mmu04260,1.313
same,enrichmentScore: Cardiac muscle contraction,GSEA KEGG mmu04260,0.4187
same,NES: Adrenergic signaling in cardiomyocytes,GSEA KEGG mmu04261,1.264
same,enrichmentScore: Adrenergic signaling in cardiomyocytes,GSEA KEGG mmu04261,0.3566
same,NES: Wnt signaling pathway,GSEA KEGG mmu04310,1.195
same,enrichmentScore: Wnt signaling pathway,GSEA KEGG mmu04310,0.334
same,NES: Notch signaling pathway,GSEA KEGG mmu04330,1.378
same,enrichmentScore: Notch signaling pathway,GSEA KEGG mmu04330,0.4468
same,NES: Hedgehog signaling pathway,GSEA KEGG mmu04340,-1.456
same,enrichmentScore: Hedgehog signaling pathway,GSEA KEGG mmu04340,-0.4001
same,NES: TGF-beta signaling pathway,GSEA KEGG mmu04350,1.497
same,enrichmentScore: TGF-beta signaling pathway,GSEA KEGG mmu04350,0.4579
same,NES: VEGF signaling pathway,GSEA KEGG mmu04370,-1.413
same,enrichmentScore: VEGF signaling pathway,GSEA KEGG mmu04370,-0.3829
same,NES: Apelin signaling pathway,GSEA KEGG mmu04371,1.504
same,enrichmentScore: Apelin signaling pathway,GSEA KEGG mmu04371,0.4209
same,NES: Osteoclast differentiation,GSEA KEGG mmu04380,1.356
same,enrichmentScore: Osteoclast differentiation,GSEA KEGG mmu04380,0.3943
same,NES: Hippo signaling pathway,GSEA KEGG mmu04390,1.527
same,enrichmentScore: Hippo signaling pathway,GSEA KEGG mmu04390,0.4244
same,NES: Focal adhesion,GSEA KEGG mmu04510,1.45
same,enrichmentScore: Focal adhesion,GSEA KEGG mmu04510,0.3877
same,NES: ECM-receptor interaction,GSEA KEGG mmu04512,1.51
same,enrichmentScore: ECM-receptor interaction,GSEA KEGG mmu04512,0.4857
same,NES: Gap junction,GSEA KEGG mmu04540,1.307
same,enrichmentScore: Gap junction,GSEA KEGG mmu04540,0.3903
same,NES: Complement and coagulation cascades,GSEA KEGG mmu04610,1.788
same,enrichmentScore: Complement and coagulation cascades,GSEA KEGG mmu04610,0.6389
same,NES: Neutrophil extracellular trap formation,GSEA KEGG mmu04613,1.259
same,enrichmentScore: Neutrophil extracellular trap formation,GSEA KEGG mmu04613,0.3655
same,NES: Toll-like receptor signaling pathway,GSEA KEGG mmu04620,1.2254
same,enrichmentScore: Toll-like receptor signaling pathway,GSEA KEGG mmu04620,0.3682
same,NES: NOD-like receptor signaling pathway,GSEA KEGG mmu04621,1.434
same,enrichmentScore: NOD-like receptor signaling pathway,GSEA KEGG mmu04621,0.4008
same,NES: C-type lectin receptor signaling pathway,GSEA KEGG mmu04625,1.433
same,enrichmentScore: C-type lectin receptor signaling pathway,GSEA KEGG mmu04625,0.4281
same,NES: JAK-STAT signaling pathway,GSEA KEGG mmu04630,1.466
same,enrichmentScore: JAK-STAT signaling pathway,GSEA KEGG mmu04630,0.4286
same,NES: Hematopoietic cell lineage,GSEA KEGG mmu04640,1.336
same,enrichmentScore: Hematopoietic cell lineage,GSEA KEGG mmu04640,0.501
same,NES: IL-17 signaling pathway,GSEA KEGG mmu04657,1.494
same,enrichmentScore: IL-17 signaling pathway,GSEA KEGG mmu04657,0.4654
same,NES: Th17 cell differentiation,GSEA KEGG mmu04659,1.198
same,enrichmentScore: Th17 cell differentiation,GSEA KEGG mmu04659,0.3665
same,NES: Fc epsilon RI signaling pathway,GSEA KEGG mmu04664,-1.329
same,enrichmentScore: Fc epsilon RI signaling pathway,GSEA KEGG mmu04664,-0.3636
same,NES: TNF signaling pathway,GSEA KEGG mmu04668,1.66
same,enrichmentScore: TNF signaling pathway,GSEA KEGG mmu04668,0.4756
same,NES: Circadian rhythm,GSEA KEGG mmu04710,-1.714
same,enrichmentScore: Circadian rhythm,GSEA KEGG mmu04710,-0.5347
same,NES: Circadian entrainment,GSEA KEGG mmu04713,1.598
same,enrichmentScore: Circadian entrainment,GSEA KEGG mmu04713,0.4957
same,NES: Synaptic vesicle cycle,GSEA KEGG mmu04721,-1.378
same,enrichmentScore: Synaptic vesicle cycle,GSEA KEGG mmu04721,-0.3771
same,NES: Neurotrophin signaling pathway,GSEA KEGG mmu04722,1.347
same,enrichmentScore: Neurotrophin signaling pathway,GSEA KEGG mmu04722,0.3745
same,NES: Glutamatergic synapse,GSEA KEGG mmu04724,1.249
same,enrichmentScore: Glutamatergic synapse,GSEA KEGG mmu04724,0.3819
same,NES: Cholinergic synapse,GSEA KEGG mmu04725,1.403
same,enrichmentScore: Cholinergic synapse,GSEA KEGG mmu04725,0.4174
same,NES: Olfactory transduction,GSEA KEGG mmu04740,1.83
same,enrichmentScore: Olfactory transduction,GSEA KEGG mmu04740,0.66
same,NES: Taste transduction,GSEA KEGG mmu04742,1.885
same,enrichmentScore: Taste transduction,GSEA KEGG mmu04742,0.7021
same,NES: Regulation of actin cytoskeleton,GSEA KEGG mmu04810,1.182
same,enrichmentScore: Regulation of actin cytoskeleton,GSEA KEGG mmu04810,0.312
same,NES: Motor proteins,GSEA KEGG mmu04814,-1.623
same,enrichmentScore: Motor proteins,GSEA KEGG mmu04814,-0.3694
same,NES: Insulin secretion,GSEA KEGG mmu04911,1.364
same,enrichmentScore: Insulin secretion,GSEA KEGG mmu04911,0.4349
same,NES: Ovarian steroidogenesis,GSEA KEGG mmu04913,1.397
same,enrichmentScore: Ovarian steroidogenesis,GSEA KEGG mmu04913,0.499
same,NES: Progesterone-mediated oocyte maturation,GSEA KEGG mmu04914,-1.352
same,enrichmentScore: Progesterone-mediated oocyte maturation,GSEA KEGG mmu04914,-0.3392
same,NES: Thyroid hormone synthesis,GSEA KEGG mmu04918,1.21
same,enrichmentScore: Thyroid hormone synthesis,GSEA KEGG mmu04918,0.3822
same,NES: Thyroid hormone signaling pathway,GSEA KEGG mmu04919,-1.193
same,enrichmentScore: Thyroid hormone signaling pathway,GSEA KEGG mmu04919,-0.278
same,NES: Oxytocin signaling pathway,GSEA KEGG mmu04921,1.2549
same,enrichmentScore: Oxytocin signaling pathway,GSEA KEGG mmu04921,0.3525
same,NES: Glucagon signaling pathway,GSEA KEGG mmu04922,-1.435
same,enrichmentScore: Glucagon signaling pathway,GSEA KEGG mmu04922,-0.3522
same,NES: Regulation of lipolysis in adipocytes,GSEA KEGG mmu04923,1.37
same,enrichmentScore: Regulation of lipolysis in adipocytes,GSEA KEGG mmu04923,0.4649
same,NES: Renin secretion,GSEA KEGG mmu04924,1.644
same,enrichmentScore: Renin secretion,GSEA KEGG mmu04924,0.5567
same,NES: Aldosterone synthesis and secretion,GSEA KEGG mmu04925,1.273
same,enrichmentScore: Aldosterone synthesis and secretion,GSEA KEGG mmu04925,0.3803
same,NES: Relaxin signaling pathway,GSEA KEGG mmu04926,1.257
same,enrichmentScore: Relaxin signaling pathway,GSEA KEGG mmu04926,0.3545
same,NES: Cortisol synthesis and secretion,GSEA KEGG mmu04927,1.396
same,enrichmentScore: Cortisol synthesis and secretion,GSEA KEGG mmu04927,0.4573
same,"NES: Parathyroid hormone synthesis, secretion and action",GSEA KEGG mmu04928,1.74
same,"enrichmentScore: Parathyroid hormone synthesis, secretion and action",GSEA KEGG mmu04928,0.5119
same,NES: Insulin resistance,GSEA KEGG mmu04931,-1.682
same,enrichmentScore: Insulin resistance,GSEA KEGG mmu04931,-0.394
same,NES: AGE-RAGE signaling pathway in diabetic complications,GSEA KEGG mmu04933,1.385
same,enrichmentScore: AGE-RAGE signaling pathway in diabetic complications,GSEA KEGG mmu04933,0.4005
same,"NES: Growth hormone synthesis, secretion and action",GSEA KEGG mmu04935,1.209
same,"enrichmentScore: Growth hormone synthesis, secretion and action",GSEA KEGG mmu04935,0.3459
same,NES: Collecting duct acid secretion,GSEA KEGG mmu04966,-1.6527
same,enrichmentScore: Collecting duct acid secretion,GSEA KEGG mmu04966,-0.5648
same,NES: Gastric acid secretion,GSEA KEGG mmu04971,1.497
same,enrichmentScore: Gastric acid secretion,GSEA KEGG mmu04971,0.4728
same,NES: Carbohydrate digestion and absorption,GSEA KEGG mmu04973,1.258
same,enrichmentScore: Carbohydrate digestion and absorption,GSEA KEGG mmu04973,0.4436
same,NES: Protein digestion and absorption,GSEA KEGG mmu04974,1.8879
same,enrichmentScore: Protein digestion and absorption,GSEA KEGG mmu04974,0.6074
